Results as given in US20240366770A1, “DEGRADATION OF BRUTON'S TYROSINE KINASE (BTK) BY CONJUGATION OF BTK INHIBITORS WITH E3 LIGASE LIGAND AND METHODS OF USE” (BeiGene Switzerland GmbH, priority 2021, published 2024).

Legend:
BTK = target: T1, BTK (Homo sapiens, UniProt Q06187); experiment: BTK degradation in TMD-8 cells (HTRF assay); type: cell-based; conditions: 6 h treatment, IC50 (DC50) of BTK degradation
T1 construct: High control=Cell group with added DMSO and without compound, indicating microplate readings without BTK degradation; endogenous in cells; host or cells: TMD-8
In short: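 BTK remaining after compound treatment was measured by HTRF (337 nm excitation, 665/620 nm emission) in lysates of TMD-8 cells. Cells were exposed for 6 h to eight 6-fold-spaced concentrations in 0.2% DMSO. DC50 values were obtained from a Hill-equation fit (top, bottom, slope) of % inhibition.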

HEK-293 cells = experiment: HEK-293 cytotoxicity detection (CellTiter-Glo); type: cell-based; conditions: Homo sapiens; HEK-293 cells, 72 h incubation, CellTiter-Glo luminescence, IC50 of cell proliferation inhibition; read-out: HEK293
In short: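 Four-parameter logistic fitting of percent inhibition versus concentration gives IC50. Luminescent ATP read-out (CellTiter-Glo) after 72 h compound treatment of HEK-293 cells, 8 doses in 4-fold steps from a 5 mM 500× DMSO stock, final DMSO 0.2%.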

T1 sequence (Q06187 whole entry): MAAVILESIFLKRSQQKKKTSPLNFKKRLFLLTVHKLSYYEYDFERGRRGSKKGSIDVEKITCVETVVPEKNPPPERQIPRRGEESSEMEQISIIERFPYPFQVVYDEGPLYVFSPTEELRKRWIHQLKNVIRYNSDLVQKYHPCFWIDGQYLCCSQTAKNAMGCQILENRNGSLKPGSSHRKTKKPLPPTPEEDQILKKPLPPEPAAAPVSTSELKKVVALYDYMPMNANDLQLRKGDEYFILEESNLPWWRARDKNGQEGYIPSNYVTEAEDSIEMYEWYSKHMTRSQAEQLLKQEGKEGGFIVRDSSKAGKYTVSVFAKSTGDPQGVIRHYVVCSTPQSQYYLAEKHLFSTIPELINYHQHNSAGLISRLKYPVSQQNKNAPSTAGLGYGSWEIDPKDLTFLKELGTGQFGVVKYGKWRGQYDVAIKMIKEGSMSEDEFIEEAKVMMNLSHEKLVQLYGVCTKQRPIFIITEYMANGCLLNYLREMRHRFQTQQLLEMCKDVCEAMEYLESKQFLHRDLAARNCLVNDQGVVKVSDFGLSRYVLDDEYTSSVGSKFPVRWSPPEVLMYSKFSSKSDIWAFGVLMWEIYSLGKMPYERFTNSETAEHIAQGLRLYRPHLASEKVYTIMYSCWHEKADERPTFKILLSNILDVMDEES

SMILES	DC50 (BTK) [nM]	IC50 (HEK-293 cells) [µM]
Cc1cc(-c2ncnc3[nH]c4cc(N5CCN(CC6CCN(c7ccc(N8CCC(=O)NC8=O)cc7)CC6)CC5)c(C)cc4c23)ccc1[C@@H](C)NC(=O)c1nc(C(C)(C)C)no1 [Example 43, (R)-3-(tert-butyl)-N-(1-(4-(7-(4-((1-(4-(2,4-dioxotetrahydropyrimidin-1(2H)-yl)phenyl)piperidin-4-yl)methyl)piperazin-1-yl)-6-methyl-9H-pyrimido[4,5-b]indol-4-yl)-2-methylphenyl)ethyl)-1,2,4-oxadiazole-5-carboxamide]	1.22	> 10
Cc1cc(-c2ncnc3[nH]c4nc(C5CCN(CC6CCN(c7ccc(N8CCC(=O)NC8=O)cc7)CC6)CC5)ccc4c23)ccc1[C@@H](C)NC(=O)c1nc(C(C)(C)C)no1 [Example 39, (R)-3-(tert-butyl)-N-(1-(4-(7-(1-((1-(4-(2,4-dioxotetrahydropyrimidin-1(2H)-yl)phenyl)piperidin-4-yl)methyl)piperidin-4-yl)-9H-pyrido[3′,2′:4,5]pyrrolo[2,3-d]pyrimidin-4-yl)-2-methylphenyl)ethyl)-1,2,4-oxadiazole-5-carboxamide]	0.725	4.02
Cc1cc(-c2ncnc3[nH]c4cc(N5CCN(C6CN(C7CN(c8ccc(N9CCC(=O)NC9=O)cc8)C7)C6)CC5)ccc4c23)ccc1[C@@H](C)NC(=O)c1nc(C2(C)CC2)no1 [Example 122, (R)—N-(1-(4-(7-(4-(1′-(4-(2,4-dioxotetrahydropyrimidin-1(2H)-yl)phenyl)-[1,3′-biazetidin]-3-yl)piperazin-1-yl)-9H-pyrimido[4,5-b]indol-4-yl)-2-methylphenyl)ethyl)-3-(1-methylcyclopropyl)-1,2,4-oxadiazole-5-carboxamide]	0.395	> 10
Cc1cc(-c2ncnc3[nH]c4cc(N5CCN(CC6CCN(c7ccc(N8CCC(=O)NC8=O)cc7)CC6)CC5)ccc4c23)c(F)cc1[C@@H](C)NC(=O)c1nc(C2(C)CC2)no1 [Example 89, (R)—N-(1-(4-(7-(4-((1-(4-(2,4-dioxotetrahydropyrimidin-1(2H)-yl)phenyl)piperidin-4-yl)methyl)piperazin-1-yl)-9H-pyrimido[4,5-b]indol-4-yl)-5-fluoro-2-methylphenyl)ethyl)-3-(1-methylcyclopropyl)-1,2,4-oxadiazole-5-carboxamide]	0.55	> 10
COc1cc2c(cc1N1CCN(C3CCN(c4cccc(C5CCC(=O)NC5=O)c4)C3)CC1)[nH]c1ncnc(-c3ccc([C@@H](C)NC(=O)c4nc(C(C)(C)C)no4)c(C)c3F)c12 (stereo partly drawn) [Example 57, 3-(tert-butyl)-N-((1R)-1-(4-(7-(4-(1-(3-(2,6-dioxopiperidin-3-yl)phenyl)pyrrolidin-3-yl)piperazin-1-yl)-6-methoxy-9H-pyrimido[4,5-b]indol-4-yl)-3-fluoro-2-methylphenyl)ethyl)-1,2,4-oxadiazole-5-carboxamide]	9.6	> 10
